In BindingDB's records for doi:10.1016/j.bmcl.2012.10.084 (Takeda Pharmaceutical, 2012):

Biological target: Mitogen-activated protein kinase kinase kinase 7 (TAK1) (Homo sapiens) (UniProt O43318)
Experiment: Inhibition of TAK1

Sequence of Mitogen-activated protein kinase kinase kinase 7 (TAK1) (Homo sapiens) (O43318 whole entry, looked up): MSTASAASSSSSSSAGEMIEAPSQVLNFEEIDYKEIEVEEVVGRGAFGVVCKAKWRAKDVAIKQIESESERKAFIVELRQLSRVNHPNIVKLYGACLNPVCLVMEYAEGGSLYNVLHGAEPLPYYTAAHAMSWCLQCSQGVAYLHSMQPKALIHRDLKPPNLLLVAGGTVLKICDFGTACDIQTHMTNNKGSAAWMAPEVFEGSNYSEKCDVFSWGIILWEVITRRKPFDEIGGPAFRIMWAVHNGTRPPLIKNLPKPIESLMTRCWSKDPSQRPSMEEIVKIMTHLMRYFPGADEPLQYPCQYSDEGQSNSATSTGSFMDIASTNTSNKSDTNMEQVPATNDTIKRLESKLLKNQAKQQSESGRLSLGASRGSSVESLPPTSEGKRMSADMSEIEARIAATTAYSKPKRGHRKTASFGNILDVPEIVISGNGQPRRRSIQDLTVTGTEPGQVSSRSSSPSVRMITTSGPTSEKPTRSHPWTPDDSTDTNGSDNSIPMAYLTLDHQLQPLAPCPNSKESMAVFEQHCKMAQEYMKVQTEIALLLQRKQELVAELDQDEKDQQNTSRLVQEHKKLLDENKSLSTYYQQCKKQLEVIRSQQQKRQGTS

CC(C)(C)c1ccc(C(=O)Nc2cn3cc(-n4ccnc4)ccc3n2)cc1
IC50: > 10 µM
